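Step 1: Grow cells in 96-well plates. Step 2: Expose to compound for 48 hours at 5 concentrations. Step 3: Interpolate endpoints linearly; if unreached, use highest concentration. Abbreviation: GI50, concentration required for 50% inhibition of growth. TGI marks complete inhibition of growth.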
Test system: HOP-18 NSCLC
Assay: growth of human tumour cells (NCI), 48 h

Row | Structure (SMILES) | TGI [µM]
1 | Fc1cccc(C2SCc3nc4ccccc4n32)c1F (centres undefined) | > 100

Test system: PC-3 prostate
Assay: growth of human tumour cells (NCI), 48 h

Row | Structure (SMILES) | TGI [µM]
2 | Cc1cc(N(CCC#N)CCC#N)ccc1/C=C1N=C(/C=C\c2ccccc2)N(c2ccc(Cl)cc2)C\1=O | > 100

Test system: TK-10 renal
Assay: growth of human tumour cells (NCI), 48 h

Row | Structure (SMILES) | TGI [µM] | GI50 [µM]
3 | Cn1c2ccccc2n2c(=O)c3c(c(C#N)c12)CCCC3 | > 100 | –
4 | Cc1cc(N(CCC#N)CCC#N)ccc1/C=C1N=C(/C=C\c2ccccc2)N(c2ccc(Cl)cc2)C\1=O | > 100 | –
5 | O=C([CH-]C(=O)c1ccccc1)c1ccccc1.O=C([CH-]C(=O)c1ccccc1)c1ccccc1.[OH-].[OH-].[Ti+4] | > 100 | > 100
6 | COc1cc(-c2cc(-c3cc([N+](=O)[O-])c(/C=N/NC(=O)c4ccncc4)o3)ccc2OC)ccc1C | > 100 | –
7 | Fc1cccc(C2SCc3nc4ccccc4n32)c1F (centres undefined) | > 100 | –
8 | O=C(N/N=C/c1cc(Cl)cc(Cl)c1O)c1ccccc1O | 70.3 | –

Test system: UO-31 renal
Assay: growth of human tumour cells (NCI), 48 h

Row | Structure (SMILES) | TGI [µM] | GI50 [µM]
9 | Cn1c2ccccc2n2c(=O)c3c(c(C#N)c12)CCCC3 | > 100 | –
10 | Cc1cc(N(CCC#N)CCC#N)ccc1/C=C1N=C(/C=C\c2ccccc2)N(c2ccc(Cl)cc2)C\1=O | > 53.9 | –
11 | O=C([CH-]C(=O)c1ccccc1)c1ccccc1.O=C([CH-]C(=O)c1ccccc1)c1ccccc1.[OH-].[OH-].[Ti+4] | > 100 | 59.3
12 | Fc1cccc(C2SCc3nc4ccccc4n32)c1F (centres undefined) | > 100 | –
13 | O=C(N/N=C/c1cc(Cl)cc(Cl)c1O)c1ccccc1O | 29.5 | –

Test system: SN12C renal
Assay: growth of human tumour cells (NCI), 48 h

Row | Structure (SMILES) | TGI [µM] | GI50 [µM]
14 | Cn1c2ccccc2n2c(=O)c3c(c(C#N)c12)CCCC3 | > 100 | –
15 | Cc1cc(N(CCC#N)CCC#N)ccc1/C=C1N=C(/C=C\c2ccccc2)N(c2ccc(Cl)cc2)C\1=O | > 100 | –
16 | O=C([CH-]C(=O)c1ccccc1)c1ccccc1.O=C([CH-]C(=O)c1ccccc1)c1ccccc1.[OH-].[OH-].[Ti+4] | > 100 | > 100
17 | COc1cc(-c2cc(-c3cc([N+](=O)[O-])c(/C=N/NC(=O)c4ccncc4)o3)ccc2OC)ccc1C | > 100 | –
18 | Fc1cccc(C2SCc3nc4ccccc4n32)c1F (centres undefined) | > 100 | –
19 | O=C(N/N=C/c1cc(Cl)cc(Cl)c1O)c1ccccc1O | 23.3 | –

Test system: K-562 leukemia
Assay: growth of human tumour cells (NCI), 48 h

Row | Structure (SMILES) | TGI [µM] | GI50 [µM]
20 | Cn1c2ccccc2n2c(=O)c3c(c(C#N)c12)CCCC3 | > 100 | –
21 | Cc1cc(N(CCC#N)CCC#N)ccc1/C=C1N=C(/C=C\c2ccccc2)N(c2ccc(Cl)cc2)C\1=O | > 100 | –
22 | O=C([CH-]C(=O)c1ccccc1)c1ccccc1.O=C([CH-]C(=O)c1ccccc1)c1ccccc1.[OH-].[OH-].[Ti+4] | > 100 | 63.3
23 | COc1cc(-c2cc(-c3cc([N+](=O)[O-])c(/C=N/NC(=O)c4ccncc4)o3)ccc2OC)ccc1C | > 100 | –
24 | Fc1cccc(C2SCc3nc4ccccc4n32)c1F (centres undefined) | > 100 | –
25 | O=C(N/N=C/c1cc(Cl)cc(Cl)c1O)c1ccccc1O | > 100 | –

Test system: HCT-116 colon
Assay: growth of human tumour cells (NCI), 48 h

Row | Structure (SMILES) | TGI [µM] | GI50 [µM]
26 | Cn1c2ccccc2n2c(=O)c3c(c(C#N)c12)CCCC3 | > 100 | –
27 | Cc1cc(N(CCC#N)CCC#N)ccc1/C=C1N=C(/C=C\c2ccccc2)N(c2ccc(Cl)cc2)C\1=O | > 100 | –
28 | O=C([CH-]C(=O)c1ccccc1)c1ccccc1.O=C([CH-]C(=O)c1ccccc1)c1ccccc1.[OH-].[OH-].[Ti+4] | > 100 | 84.3
29 | Fc1cccc(C2SCc3nc4ccccc4n32)c1F (centres undefined) | > 100 | –
30 | O=C(N/N=C/c1cc(Cl)cc(Cl)c1O)c1ccccc1O | 14.5 | 2.48

Test system: 786-0 renal
Assay: growth of human tumour cells (NCI), 48 h

Row | Structure (SMILES) | TGI [µM] | GI50 [µM]
31 | Cn1c2ccccc2n2c(=O)c3c(c(C#N)c12)CCCC3 | > 100 | –
32 | Cc1cc(N(CCC#N)CCC#N)ccc1/C=C1N=C(/C=C\c2ccccc2)N(c2ccc(Cl)cc2)C\1=O | > 100 | –
33 | O=C([CH-]C(=O)c1ccccc1)c1ccccc1.O=C([CH-]C(=O)c1ccccc1)c1ccccc1.[OH-].[OH-].[Ti+4] | > 100 | 47.1
34 | COc1cc(-c2cc(-c3cc([N+](=O)[O-])c(/C=N/NC(=O)c4ccncc4)o3)ccc2OC)ccc1C | > 100 | –
35 | Fc1cccc(C2SCc3nc4ccccc4n32)c1F (centres undefined) | > 100 | –

Test system: ACHN renal
Assay: growth of human tumour cells (NCI), 48 h

Row | Structure (SMILES) | TGI [µM] | GI50 [µM]
36 | Cn1c2ccccc2n2c(=O)c3c(c(C#N)c12)CCCC3 | > 100 | –
37 | Cc1cc(N(CCC#N)CCC#N)ccc1/C=C1N=C(/C=C\c2ccccc2)N(c2ccc(Cl)cc2)C\1=O | > 100 | –
38 | O=C([CH-]C(=O)c1ccccc1)c1ccccc1.O=C([CH-]C(=O)c1ccccc1)c1ccccc1.[OH-].[OH-].[Ti+4] | > 100 | > 100
39 | COc1cc(-c2cc(-c3cc([N+](=O)[O-])c(/C=N/NC(=O)c4ccncc4)o3)ccc2OC)ccc1C | > 100 | –
40 | Fc1cccc(C2SCc3nc4ccccc4n32)c1F (centres undefined) | > 100 | –
41 | O=C(N/N=C/c1cc(Cl)cc(Cl)c1O)c1ccccc1O | 5.57 | –

Test system: SNB-75 CNS
Assay: growth of human tumour cells (NCI), 48 h

Row | Structure (SMILES) | TGI [µM] | GI50 [µM]
42 | Cn1c2ccccc2n2c(=O)c3c(c(C#N)c12)CCCC3 | > 100 | –
43 | Cc1cc(N(CCC#N)CCC#N)ccc1/C=C1N=C(/C=C\c2ccccc2)N(c2ccc(Cl)cc2)C\1=O | > 100 | –
44 | O=C([CH-]C(=O)c1ccccc1)c1ccccc1.O=C([CH-]C(=O)c1ccccc1)c1ccccc1.[OH-].[OH-].[Ti+4] | > 100 | 49.1
45 | COc1cc(-c2cc(-c3cc([N+](=O)[O-])c(/C=N/NC(=O)c4ccncc4)o3)ccc2OC)ccc1C | > 100 | –
46 | Fc1cccc(C2SCc3nc4ccccc4n32)c1F (centres undefined) | > 100 | –
47 | O=C(N/N=C/c1cc(Cl)cc(Cl)c1O)c1ccccc1O | 22.5 | –

Test system: A498 renal
Assay: growth of human tumour cells (NCI), 48 h

Row | Structure (SMILES) | TGI [µM] | GI50 [µM]
48 | Cn1c2ccccc2n2c(=O)c3c(c(C#N)c12)CCCC3 | > 100 | –
49 | Cc1cc(N(CCC#N)CCC#N)ccc1/C=C1N=C(/C=C\c2ccccc2)N(c2ccc(Cl)cc2)C\1=O | > 100 | –
50 | O=C([CH-]C(=O)c1ccccc1)c1ccccc1.O=C([CH-]C(=O)c1ccccc1)c1ccccc1.[OH-].[OH-].[Ti+4] | > 100 | 40.5
51 | COc1cc(-c2cc(-c3cc([N+](=O)[O-])c(/C=N/NC(=O)c4ccncc4)o3)ccc2OC)ccc1C | > 100 | –
52 | Fc1cccc(C2SCc3nc4ccccc4n32)c1F (centres undefined) | > 100 | –
53 | O=C(N/N=C/c1cc(Cl)cc(Cl)c1O)c1ccccc1O | 40.6 | –

Test system: MCF7 breast
Assay: growth of human tumour cells (NCI), 48 h

Row | Structure (SMILES) | TGI [µM]
54 | Cc1cc(N(CCC#N)CCC#N)ccc1/C=C1N=C(/C=C\c2ccccc2)N(c2ccc(Cl)cc2)C\1=O | > 100

Test system: LOX IMVI melanoma
Assay: growth of human tumour cells (NCI), 48 h

Row | Structure (SMILES) | TGI [µM]
55 | Cn1c2ccccc2n2c(=O)c3c(c(C#N)c12)CCCC3 | > 100
56 | Cc1cc(N(CCC#N)CCC#N)ccc1/C=C1N=C(/C=C\c2ccccc2)N(c2ccc(Cl)cc2)C\1=O | > 100
57 | COc1cc(-c2cc(-c3cc([N+](=O)[O-])c(/C=N/NC(=O)c4ccncc4)o3)ccc2OC)ccc1C | > 100
58 | Fc1cccc(C2SCc3nc4ccccc4n32)c1F (centres undefined) | > 100
59 | O=C(N/N=C/c1cc(Cl)cc(Cl)c1O)c1ccccc1O | 24.9

Test system: HL-60(TB) leukemia
Assay: growth of human tumour cells (NCI), 48 h

Row | Structure (SMILES) | TGI [µM] | GI50 [µM]
60 | Cn1c2ccccc2n2c(=O)c3c(c(C#N)c12)CCCC3 | > 100 | –
61 | Cc1cc(N(CCC#N)CCC#N)ccc1/C=C1N=C(/C=C\c2ccccc2)N(c2ccc(Cl)cc2)C\1=O | > 100 | –
62 | O=C([CH-]C(=O)c1ccccc1)c1ccccc1.O=C([CH-]C(=O)c1ccccc1)c1ccccc1.[OH-].[OH-].[Ti+4] | > 100 | > 100
63 | Fc1cccc(C2SCc3nc4ccccc4n32)c1F (centres undefined) | 46.9 | –

Test system: DU-145 prostate
Assay: growth of human tumour cells (NCI), 48 h

Row | Structure (SMILES) | TGI [µM]
64 | Cc1cc(N(CCC#N)CCC#N)ccc1/C=C1N=C(/C=C\c2ccccc2)N(c2ccc(Cl)cc2)C\1=O | > 100

Test system: NCI-H23 lung
Assay: growth of human tumour cells (NCI), 48 h

Row | Structure (SMILES) | TGI [µM] | GI50 [µM]
65 | Cn1c2ccccc2n2c(=O)c3c(c(C#N)c12)CCCC3 | > 100 | –
66 | Cc1cc(N(CCC#N)CCC#N)ccc1/C=C1N=C(/C=C\c2ccccc2)N(c2ccc(Cl)cc2)C\1=O | > 100 | –
67 | COc1cc(-c2cc(-c3cc([N+](=O)[O-])c(/C=N/NC(=O)c4ccncc4)o3)ccc2OC)ccc1C | > 100 | –
68 | Fc1cccc(C2SCc3nc4ccccc4n32)c1F (centres undefined) | > 100 | –
69 | O=C(N/N=C/c1cc(Cl)cc(Cl)c1O)c1ccccc1O | – | 2.69

Test system: HT29 colon
Assay: growth of human tumour cells (NCI), 48 h

Row | Structure (SMILES) | TGI [µM] | GI50 [µM]
70 | Cn1c2ccccc2n2c(=O)c3c(c(C#N)c12)CCCC3 | > 100 | –
71 | Cc1cc(N(CCC#N)CCC#N)ccc1/C=C1N=C(/C=C\c2ccccc2)N(c2ccc(Cl)cc2)C\1=O | > 100 | –
72 | O=C([CH-]C(=O)c1ccccc1)c1ccccc1.O=C([CH-]C(=O)c1ccccc1)c1ccccc1.[OH-].[OH-].[Ti+4] | > 100 | > 100
73 | COc1cc(-c2cc(-c3cc([N+](=O)[O-])c(/C=N/NC(=O)c4ccncc4)o3)ccc2OC)ccc1C | > 100 | –
74 | Fc1cccc(C2SCc3nc4ccccc4n32)c1F (centres undefined) | > 100 | –
75 | O=C(N/N=C/c1cc(Cl)cc(Cl)c1O)c1ccccc1O | 26.1 | –

Test system: MDA-MB-231 breast
Assay: growth of human tumour cells (NCI), 48 h

Row | Structure (SMILES) | TGI [µM]
76 | Cc1cc(N(CCC#N)CCC#N)ccc1/C=C1N=C(/C=C\c2ccccc2)N(c2ccc(Cl)cc2)C\1=O | > 100

Test system: SW-620 colon
Assay: growth of human tumour cells (NCI), 48 h

Row | Structure (SMILES) | TGI [µM]
77 | Cn1c2ccccc2n2c(=O)c3c(c(C#N)c12)CCCC3 | > 100

Source: PubChem BioAssay (NCI)
